The results in this text go back to ChEMBL document CHEMBL5375964, “Identification of Small Molecule Inhibitors and Ligand Directed Degraders of Calcium/Calmodulin Dependent Protein Kinase Kinase 1 and 2 (CaMKK1/2)” (J Med Chem, 2023).

A word on the EC50: it is the concentration at which the effect is half-maximal. As a reminder, the IC50 is the concentration that inhibits the measured activity by half. A word on the AUC(0-t): it is the area under the concentration-time curve up to a stated or last time point. As a reminder, the Cmax is the maximum level reached in the sampled fluid or tissue. Broadly, the bioavailability is dose-corrected exposure relative to a reference, in per cent. The Kd is the concentration at which binding is half-saturated. The term half-life denotes how long it takes for the measured level to halve. In general, Tmax refers to the time at which the peak concentration occurs.

For data set [1], the target named is Calcium/calmodulin-dependent protein kinase kinase 2 (Homo sapiens, UniProt Q96RR4). The data set is described as follows: Induction of ePL tagged degradation of CaMKK2 (unknown origin) expressed in […] cells incubated for 24 hrs by luminescence based analysis. The format is cell-based, HEK293T.
Data set [2] concerns the target Calcium/calmodulin-dependent protein kinase kinase 1 (Homo sapiens, UniProt Q8N5S9). In words: Inhibition of CaMKK1 (unknown origin) incubated for 20 mins in presence of kinase tracer 236 by TR-FRET. For orientation: TR-FRET usually uses a lanthanide donor and a delayed reading to cut background.
A short description of data set [3]: AUC (0 to 24 hrs) in C57BL/6 mouse at 10 mg/kg, po measured upto 72 hrs. The format is ADME, organism-based. Also noted: dose 10 mg/kg, time < 72 hrs, route po. Conditions: in vivo.
The nature of data set [4]: Cmax in C57BL/6 mouse at 10 mg/kg, po measured upto 72 hrs. The following applies: in vivo. The data set is classed as ADME, organism-based. Details: time < 72 hrs, dose 10 mg/kg, route po.
Data set [5] is described as follows: Oral bioavailability in C57BL/6 mouse at 10 mg/kg measured upto 72 hrs. The data set is classed as ADME, organism-based. The following applies: in vivo.
The target of data set [6] is Von Hippel-Lindau disease tumor suppressor/Elongin B/Elongin C (Homo sapiens, UniProt P40337). The data set is described as follows: Binding affinity to N-terminal 6 his tagged VHL (54 to 213 residues)/truncated ElonginC (17 to 122 residues) /full length ElonginB (unknown origin) expressed in Escherichia coli assessed as dissociation constant measured upto 300 secs by SPR analysis.

The next data set relates to A-427. The data set is described as follows: Antiproliferative activity against human A-427 cells assessed as reduction in cell growth incubated for 48 hrs by CellTiter assay. Conditions: A-427, 48 h.
A short description of data set [7]: Half life in C57BL/6 mouse at 10 mg/kg, po measured upto 72 hrs. The format is ADME, organism-based. Conditions: in vivo.
Data set [8] is described as follows: Tmax in C57BL/6 mouse at 10 mg/kg, po measured upto 72 hrs. The format is ADME, organism-based. Conditions: in vivo.
Data set [9] can be described thus: Half life in C57BL/6 mouse at 10 mg/kg, sc measured upto 72 hrs. The format is ADME, organism-based. The following applies: in vivo.
A short description of data set [10]: Tmax in C57BL/6 mouse at 10 mg/kg, sc measured upto 72 hrs. The format is ADME, organism-based. Conditions: in vivo.
A short description of data set [11]: AUC (0 to 24 hrs) in C57BL/6 mouse at 10 mg/kg, sc measured upto 72 hrs. Also noted: time < 72 hrs, dose 10 mg/kg, route sc. The data set is classed as ADME, organism-based. The following applies: in vivo.
A short description of data set [12]: Cmax in C57BL/6 mouse at 10 mg/kg, sc measured upto 72 hrs. The format is ADME, organism-based. Also noted: dose 10 mg/kg, time < 72 hrs, route sc. The following applies: in vivo.
Data set [13] can be described thus: Bioavailability in C57BL/6 mouse at 10 mg/kg, sc measured upto 72 hrs. The format is ADME, organism-based. The following applies: in vivo.
Data set [14] in a line: Volume of distribution at steady state in Sprague-Dawley rat at 3 mg/kg, po or 1 mg/kg, iv measured upto 24 hrs. The data set is classed as ADME, organism-based. The following applies: in vivo.
Data set [15] is described as follows: Half life in Sprague-Dawley rat at 3 mg/kg, po or 1 mg/kg, iv measured upto 24 hrs. The data set is classed as ADME, organism-based. Conditions: in vivo.
Data set [16] can be described thus: AUC (0 to 24 hrs) in Sprague-Dawley rat at 3 mg/kg, po or 1 mg/kg, iv measured upto 24 hrs. The format is ADME, organism-based. Also noted: time < 24 hrs, dose 3 mg/kg, route po. The following applies: in vivo.
A short description of data set [17]: Cmax in Sprague-Dawley rat at 3 mg/kg, po or 1 mg/kg, iv measured upto 24 hrs. The data set is classed as ADME, organism-based. Also noted: dose 3 mg/kg, time < 24 hrs, route po. The following applies: in vivo.
Data set [18] in a line: Tmax in Sprague-Dawley rat at 3 mg/kg, po or 1 mg/kg, iv measured upto 24 hrs. The following applies: in vivo. The format is ADME, organism-based.
A short description of data set [19]: Bioavailability in Sprague-Dawley rat 3 mg/kg, po or 1 mg/kg, iv measured upto 24 hrs. The data set is classed as ADME, organism-based. The following applies: in vivo.
Data set [20] in a line: Plasma protein binding in Sprague-Dawley rat. The data set is classed as ADME, cell-free. The following applies: read-out: PPB (converted).
Data set [21] addresses Voltage-gated inwardly rectifying potassium channel KCNH2 (Homo sapiens, UniProt Q12809). The data set is described as follows: Inhibition of human ERG. The data set is classed as toxicity.
Data set [22] can be described thus: Plasma protein binding in human. The format is ADME, cell-free. Details: dose or concentration left out as unconfirmed. Conditions: route po, read-out: PPB (converted).
The nature of data set [23]: Volume of distribution in steady state in Beagle dog at 3 mg/kg, po or 1 mg/kg, iv measured upto 72 hrs. The data set is classed as ADME, organism-based, Canis lupus familiaris. The following applies: in vivo.
The nature of data set [24]: Half life in Beagle dog at 3 mg/kg, po or 1 mg/kg, iv measured upto 72 hrs. The data set is classed as ADME, organism-based, Canis lupus familiaris. Conditions: in vivo.
Data set [25] is described as follows: AUC (0 to 72 hrs) in Beagle dog at 3 mg/kg, po or 1 mg/kg, iv measured upto 72 hrs. The format is ADME, organism-based, Canis lupus familiaris. Details: dose 3 mg/kg, time < 72 hrs, route po. Conditions: in vivo.
Data set [26] is described as follows: Cmax in Beagle dog at 3 mg/kg, po or 1 mg/kg, iv measured upto 72 hrs. The data set is classed as ADME, organism-based, Canis lupus familiaris. Also noted: time < 72 hrs, dose 3 mg/kg, route po. Conditions: in vivo.
Data set [27] can be described thus: Tmax in Beagle dog at 3 mg/kg, po or 1 mg/kg, iv measured upto 72 hrs. The data set is classed as ADME, organism-based, Canis lupus familiaris. Conditions: in vivo.
The nature of data set [28]: Bioavailability in Beagle dog at 3 mg/kg, po or 1 mg/kg, iv measured upto 72 hrs. The format is ADME, organism-based, Canis lupus familiaris. The following applies: in vivo.
Data set [29] in a line: Plasma protein binding in Beagle dog. The format is ADME, cell-free, Canis lupus familiaris. The following applies: read-out: PPB (converted).
Data set [30] can be described thus: Half life in Cynomolgus monkey at 3 mg/kg, po or 1 mg/kg, iv measured upto 72 hrs. The data set is classed as ADME, organism-based, Macaca fascicularis. The following applies: in vivo.
Data set [31] is described as follows: AUC (0 to 72 hrs) in Cynomolgus monkey at 3 mg/kg, po or 1 mg/kg, iv measured upto 72 hrs. The format is ADME, organism-based, Macaca fascicularis. Also noted: dose 3 mg/kg, time < 72 hrs, route po. The following applies: in vivo.
The nature of data set [32]: Cmax in Cynomolgus monkey at 3 mg/kg, po or 1 mg/kg, iv measured upto 72 hrs. The data set is classed as ADME, organism-based, Macaca fascicularis. Also noted: time < 72 hrs, dose 3 mg/kg, route po. Conditions: in vivo.
Data set [33] is described as follows: Tmax in Cynomolgus monkey at 3 mg/kg, po or 1 mg/kg, iv measured upto 72 hrs. The format is ADME, organism-based, Macaca fascicularis. Conditions: in vivo.
The nature of data set [34]: Bioavailability in Cynomolgus monkey at 3 mg/kg, po or 1 mg/kg, iv measured upto 72 hrs. The format is ADME, organism-based, Macaca fascicularis. The following applies: in vivo.
Data set [35] in a line: Plasma protein binding in Cynomolgus monkey. The data set is classed as ADME, cell-free, Macaca fascicularis. Conditions: read-out: PPB (converted).

Sequence of Calcium/calmodulin-dependent protein kinase kinase 2 (Q96RR4 whole entry): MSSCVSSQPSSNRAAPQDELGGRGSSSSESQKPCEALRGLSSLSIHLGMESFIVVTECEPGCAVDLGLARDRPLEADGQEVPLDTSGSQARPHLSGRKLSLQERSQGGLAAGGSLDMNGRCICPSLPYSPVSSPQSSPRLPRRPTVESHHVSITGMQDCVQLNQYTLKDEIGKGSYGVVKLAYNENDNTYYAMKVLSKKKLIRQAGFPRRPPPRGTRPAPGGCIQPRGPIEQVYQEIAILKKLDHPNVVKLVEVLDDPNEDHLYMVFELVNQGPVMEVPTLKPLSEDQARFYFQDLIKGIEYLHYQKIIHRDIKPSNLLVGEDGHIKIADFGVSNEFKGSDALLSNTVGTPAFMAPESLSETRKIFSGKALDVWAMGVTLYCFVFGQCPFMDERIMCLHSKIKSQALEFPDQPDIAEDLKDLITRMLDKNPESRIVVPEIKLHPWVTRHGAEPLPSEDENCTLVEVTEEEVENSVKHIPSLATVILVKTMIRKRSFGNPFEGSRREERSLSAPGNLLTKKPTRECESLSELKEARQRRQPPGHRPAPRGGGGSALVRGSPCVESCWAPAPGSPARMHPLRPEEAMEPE
Sequence of Calcium/calmodulin-dependent protein kinase kinase 1 (Q8N5S9 whole entry): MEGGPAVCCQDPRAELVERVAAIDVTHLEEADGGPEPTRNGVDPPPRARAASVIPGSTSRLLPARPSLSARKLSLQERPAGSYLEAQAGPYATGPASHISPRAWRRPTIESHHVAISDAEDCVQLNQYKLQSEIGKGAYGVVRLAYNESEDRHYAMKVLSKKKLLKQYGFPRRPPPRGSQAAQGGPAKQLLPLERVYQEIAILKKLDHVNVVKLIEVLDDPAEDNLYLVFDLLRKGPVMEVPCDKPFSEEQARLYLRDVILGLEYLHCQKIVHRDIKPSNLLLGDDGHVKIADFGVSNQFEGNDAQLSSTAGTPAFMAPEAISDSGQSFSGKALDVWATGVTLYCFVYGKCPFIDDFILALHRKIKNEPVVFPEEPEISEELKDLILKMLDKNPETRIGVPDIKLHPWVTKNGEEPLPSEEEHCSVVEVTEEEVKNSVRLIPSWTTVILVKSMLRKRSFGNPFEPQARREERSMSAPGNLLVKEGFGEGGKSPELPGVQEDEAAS
Sequence of Voltage-gated inwardly rectifying potassium channel KCNH2 (Q12809 whole entry): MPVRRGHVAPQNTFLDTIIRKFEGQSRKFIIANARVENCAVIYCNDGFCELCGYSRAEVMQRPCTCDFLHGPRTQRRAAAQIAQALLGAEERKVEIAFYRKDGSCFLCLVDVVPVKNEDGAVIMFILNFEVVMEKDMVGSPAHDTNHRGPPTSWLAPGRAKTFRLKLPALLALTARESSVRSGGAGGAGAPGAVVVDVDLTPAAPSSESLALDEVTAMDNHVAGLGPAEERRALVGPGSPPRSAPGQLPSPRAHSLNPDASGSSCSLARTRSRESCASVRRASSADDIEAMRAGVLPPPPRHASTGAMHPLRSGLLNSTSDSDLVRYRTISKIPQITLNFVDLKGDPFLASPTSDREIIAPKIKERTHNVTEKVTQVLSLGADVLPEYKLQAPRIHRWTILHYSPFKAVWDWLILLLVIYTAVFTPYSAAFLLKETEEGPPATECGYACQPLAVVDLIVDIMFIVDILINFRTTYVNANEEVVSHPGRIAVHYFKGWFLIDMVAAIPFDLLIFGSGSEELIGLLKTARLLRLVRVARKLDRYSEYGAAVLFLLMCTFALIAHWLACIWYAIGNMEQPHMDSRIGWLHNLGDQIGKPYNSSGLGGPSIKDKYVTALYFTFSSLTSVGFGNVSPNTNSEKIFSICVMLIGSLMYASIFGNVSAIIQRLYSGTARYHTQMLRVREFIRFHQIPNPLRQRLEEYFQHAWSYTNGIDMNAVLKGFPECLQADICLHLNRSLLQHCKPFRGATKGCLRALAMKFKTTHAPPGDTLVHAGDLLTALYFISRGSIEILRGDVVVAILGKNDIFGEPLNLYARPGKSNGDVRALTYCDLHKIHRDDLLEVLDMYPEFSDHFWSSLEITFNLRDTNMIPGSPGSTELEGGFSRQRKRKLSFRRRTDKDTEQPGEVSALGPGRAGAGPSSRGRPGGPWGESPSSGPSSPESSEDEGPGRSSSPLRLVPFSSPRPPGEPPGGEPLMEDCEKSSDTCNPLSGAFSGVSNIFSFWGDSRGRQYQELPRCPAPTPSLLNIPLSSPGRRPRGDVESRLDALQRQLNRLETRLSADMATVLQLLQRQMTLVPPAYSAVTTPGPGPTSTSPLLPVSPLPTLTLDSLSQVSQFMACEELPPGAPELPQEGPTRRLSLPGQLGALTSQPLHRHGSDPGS
Sequence of Von Hippel-Lindau disease tumor suppressor/Elongin B/Elongin C (P40337 whole entry, looked up, the tested form may be a part): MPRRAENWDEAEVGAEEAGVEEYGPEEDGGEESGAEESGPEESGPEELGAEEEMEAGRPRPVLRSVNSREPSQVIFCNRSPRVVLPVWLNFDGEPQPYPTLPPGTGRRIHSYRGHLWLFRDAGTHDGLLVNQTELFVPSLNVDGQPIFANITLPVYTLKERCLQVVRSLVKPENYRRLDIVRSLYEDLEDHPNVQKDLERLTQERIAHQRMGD

In the case of `Cc1ncsc1-c1ccc(CNC(=O)[C@@H]2C[C@@H](O)CN2C(=O)[C@@H](NC(=O)CCCCCCCOc2ccc3c(-c4ccc(C(=O)O)c(C5CCCC5)c4)ncnc3c2)C(C)(C)C)cc1`, the EC50 in data set [1] turned out to be 510 nM.

Regarding `Cc1ncsc1-c1ccc(CNC(=O)[C@@H]2C[C@@H](O)CN2C(=O)[C@@H](NC(=O)CCCCCCOc2ccc3c(-c4ccc(C(=O)O)c(C5CCCC5)c4)ncnc3c2)C(C)(C)C)cc1`, the EC50 in [1] turned out to be 2000 nM.

With `CCOc1cc2ncnc(-c3ccc(C(=O)O)c(C4CCCC4)c3)c2cc1F`, in data set [2], the IC50 amounted to 54 nM.

On to `CCOc1cc2ncnc(-c3ccc(C(=O)O)c(C(C)C)c3)c2cc1F`, for which the IC50 in [2] was 11 nM.

As for `Cc1ncsc1-c1ccc(CNC(=O)[C@@H]2C[C@@H](O)CN2C(=O)[C@@H](NC(=O)CCCCCCCCOc2ccc3c(-c4ccc(C(=O)O)c(C5CCCC5)c4)ncnc3c2)C(C)(C)C)cc1`, the EC50 in data set [1] was found to be 620 nM.

With `Cc1ncsc1-c1ccc(CNC(=O)[C@@H]2C[C@@H](O)CN2C(=O)[C@@H](NC(=O)CCCCCCCCCCOc2ccc3c(-c4ccc(C(=O)O)c(C5CCCC5)c4)ncnc3c2)C(C)(C)C)cc1`, the EC50 in data set [1] amounted to 530 nM.

Turning to `CCOc1ccc2c(-c3ccc(C(=O)O)c(C(C)C)c3)ncnc2c1`, the IC50 in [2] worked out at 47 nM.

Consider `Cc1ncsc1-c1ccc(CNC(=O)[C@@H]2C[C@@H](O)CN2C(=O)[C@@H](NC(=O)CCCCCCCCCOc2ccc3c(-c4ccc(C(=O)O)c(C5CCCC5)c4)ncnc3c2)C(C)(C)C)cc1`, for which the IC50 in data set [2] is 94 nM. For the same compound, the AUC(0-t) at 72 h in data set [3] is 3.96 µM·h; in data set [11] it was 39.9 µM·h. In addition, the Cmax worked out at 3.21 µM in data set [4] and 7.18 µM in data set [12]. The bioavailability in data set [5] worked out at 18%; in data set [13], 100%. The Kd in [6] worked out at 130 nM. Moreover, the EC50 in the data set with A-427 is over 8000 nM. Further, the half-life in [7] was 8.1 h; in data set [9], 24 h. Further, the Tmax in [8] and in data set [10] was 0.5 h throughout.

`Cc1ncsc1-c1ccc(CNC(=O)[C@@H]2C[C@@H](O)CN2C(=O)[C@@H](NC(=O)CCCCCOc2ccc3c(-c4ccc(C(=O)O)c(C5CCCC5)c4)ncnc3c2)C(C)(C)C)cc1`: the EC50 in data set [1] is over 10000 nM.

As to `CCOc1cc(F)c2c(-c3ccc(C(=O)O)c(C(C)C)c3)ncnc2c1`, the IC50 is 12 nM in data set [2] and over 30000 nM in [21]. Also, the Vdss was 0.57 L/kg in [14] and 0.44 L/kg in data set [23]. Besides, the half-life in data set [15] is 4.9 h; in data set [24], 11 h; in [30] it was 20 h. In addition, the AUC(0-t) at 24 h in data set [16] was found to be 58 µM·h. Moreover, the Cmax was found to be 19 µM in data set [17], 30 µM in [26] and 28 µM in data set [32]. The Tmax was 3 h in data set [18], 0.5 h in data set [27] and 1.7 h in [33]. Moreover, the bioavailability in [19] turned out to be 80%; in [28], 68%; in data set [34], 95%. The values for the fraction unbound in data set [20], in data set [29] and in data set [35] were 0.012, 0.02 and 0.007, respectively. The fraction unbound at 72 h in data set [22] was 0.003. Also, the AUC(0-t) at 72 h in [25] amounted to 79 µM·h; in data set [31], 282 µM·h.

`Cc1ncsc1-c1ccc(CNC(=O)[C@@H]2C[C@@H](O)CN2C(=O)[C@@H](NC(=O)CCCCCCCCCCCOc2ccc3c(-c4ccc(C(=O)O)c(C5CCCC5)c4)ncnc3c2)C(C)(C)C)cc1`: the EC50 in [1] was 4500 nM.

For the compound `Cc1ncsc1-c1ccc(CNC(=O)[C@@H]2C[C@@H](O)CN2C(=O)[C@@H](N(C)C(=O)CCCCCCCCCOc2ccc3c(-c4ccc(C(=O)O)c(C5CCCC5)c4)ncnc3c2)C(C)(C)C)cc1`, the EC50 in [1] is over 10000 nM.
